Assay results from ChEMBL document CHEMBL5126607, “Discovery and In Vivo Evaluation of ACT-660602: A Potent and Selective Antagonist of the Chemokine Receptor CXCR3 for Autoimmune Diseases” (J Med Chem, 2022).
pIC50: −log10 of the molar value.

How the values were obtained:
[1] = target: Voltage-gated inwardly rectifying potassium channel KCNH2 (Homo sapiens, UniProt Q12809); assay: Inhibition of hERG expressed in CHO cells by Q patch-clamp method
[2] = target: T1, C-X-C chemokine receptor type 3 (Homo sapiens, UniProt P49682)
T1 sequence (P49682 whole entry): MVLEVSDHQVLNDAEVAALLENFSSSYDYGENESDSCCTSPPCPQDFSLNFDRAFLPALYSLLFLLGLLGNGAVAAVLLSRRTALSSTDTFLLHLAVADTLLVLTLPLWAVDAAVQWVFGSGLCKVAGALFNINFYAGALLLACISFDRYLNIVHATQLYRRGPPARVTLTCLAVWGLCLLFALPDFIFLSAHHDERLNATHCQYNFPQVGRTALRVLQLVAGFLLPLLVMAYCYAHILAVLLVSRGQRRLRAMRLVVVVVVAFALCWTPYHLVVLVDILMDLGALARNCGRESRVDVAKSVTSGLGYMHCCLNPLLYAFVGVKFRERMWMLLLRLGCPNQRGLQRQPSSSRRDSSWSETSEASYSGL
Description: Antagonist activity at recombinant human CXCR3 expressed in human CHO-K1 cells co-expressing Galpha15 incubated for 10 mins by Fluo-4AM dye based FLIPR assay

in vitro = conditions: human
[3] = target: T1, C-X-C chemokine receptor type 3; remark: listed apart in the source
Description: Inhibition of CXCR3 receptor internalization in human venous whole blood incubated for 30 mins by flow cytometer analysis

[4] = target: T1, C-X-C chemokine receptor type 3; remark: listed apart in the source
Description: Antagonist activity at recombinant human CXCR3 in human U2SO cells assessed as reduction in CXCL10-induced beta-arrestin recruitment by TANGO assay

Sequence of Voltage-gated inwardly rectifying potassium channel KCNH2 (Q12809 whole entry): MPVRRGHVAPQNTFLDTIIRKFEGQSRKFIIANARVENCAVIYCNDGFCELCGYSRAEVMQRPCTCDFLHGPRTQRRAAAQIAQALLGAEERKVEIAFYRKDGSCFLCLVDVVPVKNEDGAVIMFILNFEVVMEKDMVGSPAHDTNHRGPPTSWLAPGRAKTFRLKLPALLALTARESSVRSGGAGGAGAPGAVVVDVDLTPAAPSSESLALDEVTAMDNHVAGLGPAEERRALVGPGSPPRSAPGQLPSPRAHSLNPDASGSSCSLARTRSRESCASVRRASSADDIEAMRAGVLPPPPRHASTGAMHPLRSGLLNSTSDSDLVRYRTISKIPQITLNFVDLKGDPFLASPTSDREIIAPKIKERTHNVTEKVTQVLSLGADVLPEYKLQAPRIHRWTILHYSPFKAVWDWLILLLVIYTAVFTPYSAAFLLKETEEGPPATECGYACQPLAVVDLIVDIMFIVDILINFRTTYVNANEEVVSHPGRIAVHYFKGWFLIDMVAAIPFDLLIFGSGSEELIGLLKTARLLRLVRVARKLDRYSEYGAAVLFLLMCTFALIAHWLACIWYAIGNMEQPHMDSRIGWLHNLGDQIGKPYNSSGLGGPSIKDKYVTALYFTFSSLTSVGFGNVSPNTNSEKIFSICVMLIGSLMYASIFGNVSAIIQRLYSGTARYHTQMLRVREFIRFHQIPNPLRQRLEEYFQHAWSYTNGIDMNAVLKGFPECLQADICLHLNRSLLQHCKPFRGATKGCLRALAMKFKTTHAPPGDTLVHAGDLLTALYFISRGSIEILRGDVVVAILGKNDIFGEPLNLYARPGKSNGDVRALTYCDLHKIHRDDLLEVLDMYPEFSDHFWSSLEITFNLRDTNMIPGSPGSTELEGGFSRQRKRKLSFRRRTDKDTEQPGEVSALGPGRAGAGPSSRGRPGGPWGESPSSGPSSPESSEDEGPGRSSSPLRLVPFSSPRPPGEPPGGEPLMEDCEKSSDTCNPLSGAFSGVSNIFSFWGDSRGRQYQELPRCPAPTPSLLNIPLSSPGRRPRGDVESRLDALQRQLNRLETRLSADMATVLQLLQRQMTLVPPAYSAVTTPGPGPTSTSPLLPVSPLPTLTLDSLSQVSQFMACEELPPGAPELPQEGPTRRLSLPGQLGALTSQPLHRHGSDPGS

| Compound | pIC50 [1] | pIC50 [2] | microsomal CLint at 1 µM (in vitro; microsomes) [µL/min/mg] | pIC50 [3] | pIC50 [4] | microsomal CLint at 1 µM (in vitro; liver microsomes) [µL/min/mg] |
| --- | --- | --- | --- | --- | --- | --- |
| Cc1ncc(-c2nc(C(F)(F)F)sc2N2CCN(C(=O)Cn3nc(C)nc3C)[C@H](C)C2)cn1 | < 4.70 |  |  |  |  |  |
| C[C@@H]1CN(c2sc(C3COC3)nc2-c2nc3ccccc3[nH]2)CCN1C(=O)Cn1cnc2cccnc21 | 5.36 | 7.28 | 38 | 5.94 | 5.21 |  |
| C[C@@H]1CN(c2sc(C3CC3)nc2-c2nc3ccccc3[nH]2)CCN1C(=O)Cn1cnc2cccnc21 | 6.42 | 8.01 |  | 6.00 | 6.13 |  |
| O=C(Nc1cccnc1N1CCN(C(=O)Cn2cnc3cccnc32)CC1)c1cccc(Cl)c1 |  | 8.38 |  |  |  |  |
| CCc1ncc(-c2nc(C(F)(F)F)sc2N2CCN(C(=O)Cn3nc(C)nc3C)[C@H](C)C2)cn1 | < 4.70 |  |  |  |  |  |
| C[C@@H]1CN(c2sc(Br)nc2-c2nc3ccccc3[nH]2)CCN1C(=O)Cn1cnc2cccnc21 | 6.47 | 8.55 |  | 6.28 | 6.90 |  |
| CCOc1ccc(-c2nc(C(F)(F)F)sc2N2CCN(C(=O)Cn3nc(C)nc3C)[C@H](C)C2)cn1 | < 4.70 | 8.06 | 66 | 6.05 | 6.30 |  |
| CCOc1ncc(-c2nc(C(F)(F)F)sc2N2CCN(C(=O)Cn3nccc3C)[C@H](C)C2)cn1 | 5.25 | 8.70 | 65 | 6.54 | 6.79 |  |
| O=C(Nc1ccccc1N1CCN(C(=O)Cn2cnc3cccnc32)CC1)c1cccc(Cl)c1 |  | 8.80 |  |  |  |  |
| COc1ncc(-c2nc(C(F)(F)F)sc2N2CCN(C(=O)Cn3nc(C)nc3C)[C@H](C)C2)cn1 | < 4.70 |  |  |  |  |  |
| CCc1nc(-c2nc3ccccc3[nH]2)c(N2CCN(C(=O)Cn3cnc4cccnc43)[C@H](C)C2)s1 |  |  |  |  |  | 88 |
| COc1ccc(-c2nc(C(F)(F)F)sc2N2CCN(C(=O)Cn3nc(C)nc3C)[C@H](C)C2)cn1 | < 4.70 |  |  |  |  |  |
| CCOc1ncc(-c2nc(C(F)(F)F)sc2N2CCN(C(=O)Cn3cc(Cl)cn3)[C@H](C)C2)cn1 | 5.55 |  |  |  |  |  |
| C[C@@H]1CN(c2sc(CO)nc2-c2nc3ccccc3[nH]2)CCN1C(=O)Cn1cnc2cccnc21 | 4.72 | 6.77 |  | 5.47 | < 5.00 |  |
| CC[C@@H]1CN(c2scnc2-c2nc3ccccc3[nH]2)CCN1C(=O)Cn1cnc2cccnc21 | 6.12 | 8.41 |  |  | 6.22 |  |
| CCOc1ncc(-c2nc(C(F)(F)F)sc2N2CCN(C(=O)Cn3cnc4ccccc43)[C@H](C)C2)cn1 | 5.33 |  |  |  |  |  |
| O=C(Cn1cnc2cccnc21)N1CCN(c2ncsc2-c2nc3ccccc3[nH]2)CC1 |  | 5.38 |  |  |  |  |
| CCOc1ncc(-c2nc(C(F)(F)F)sc2N2CCN(C(=O)Cn3ccc4cnccc43)[C@H](C)C2)cn1 | 6.24 |  |  |  |  |  |
| C[C@H]1CN(c2scnc2-c2nc3ccccc3[nH]2)CCN1C(=O)Cn1cnc2cccnc21 | 6.20 | 7.17 |  |  | 5.10 |  |
| O=C(Cn1cnc2cccnc21)N1CCN(c2ccccc2-c2nc3ccccc3[nH]2)CC1 |  | 8.37 |  | 6.64 |  |  |
| CCOc1ncc(-c2nc(C(F)(F)F)sc2N2CCN(C(=O)Cn3ncc4cccnc43)[C@H](C)C2)cn1 | 4.82 |  |  |  |  |  |
| Cc1nc(C)n(CC(=O)N2CCN(c3sc(C(F)(F)F)nc3-c3cnc(N4CCCC4)nc3)C[C@H]2C)n1 | < 4.70 | 8.46 |  | 6.45 | 6.28 |  |
| CCOc1ncc(-c2nc(C(F)(F)F)sc2N2CCN(C(=O)CN3C(=O)Cc4ccccc43)[C@H](C)C2)cn1 | 5.52 |  |  |  |  |  |
| CCOc1ncc(-c2nc(C(F)(F)F)sc2N2CCN(C(=O)Cn3ccc4cccnc43)[C@H](C)C2)cn1 | 5.38 |  |  |  |  |  |
| CCOc1ncc(-c2nc(C(F)(F)F)sc2N2CCN(C(=O)Cn3c(=O)oc4ccccc43)[C@H](C)C2)cn1 | 5.66 | 8.48 |  | 6.27 | 7.00 |  |
| Cc1nc(C)n(CC(=O)N2CCN(c3sc(C(F)(F)F)nc3-c3cnc(C(C)(C)C)nc3)C[C@H]2C)n1 | < 4.70 |  |  |  |  |  |
| O=C(Cn1cnc2cccnc21)N1CCN(c2scnc2-c2nc3ccccc3[nH]2)CC1 |  | 7.52 |  | 5.84 |  |  |
